Measured values reported in PMC10515640, “Structure-Based Optimization of Covalent, Small-Molecule Stabilizers of the 14-3-3σ/ERα Protein–Protein Interaction from Nonselective Fragments” (Journal of the American Chemical Society, 2023).

Tests used:
14-3-3σ/ERα [1] = molecular target: T1, 14-3-3σ/ERα (Homo sapiens, UniProt P03372+P31947); test: Fluorescence anisotropy protein titration, FAM-labeled ERα peptide; assay type: binding; details: 10 nM FAM-ERα peptide; for X Fold stabilization (100 µM compound) of 14-3-3σ/ERα: versus DMSO reference
T1 construct: The 14-3-3 σ isoform (full-length for mass spectrometry and fluorescence anisotropy assays, ΔC for crystallography); made in house; host or cells: E. coli Rosetta 2(DE3)pLysS, pPROEX HTb vector
Description: To evaluate compound-mediated stabilization of the 14-3-3σ/ERα complex directly, FA protein titrations were performed at a saturating concentration of compound. FA protein titrations allowed the quantification of the cooperative effect by comparing the apparent dissociation constants (appKD) of the binary and ternary complexes. 14-3-3σ was titrated into 10 nM FAM-labeled ERα peptide in the presence of DMSO or 100 μM of the compounds (Table S4). […]
diluted in buffer (10 mM HEPES, pH 7.5, 150 mM NaCl, 0.1% Tween20, 1 mg/mL Bovine Serum Albumin (BSA; Sigma-Aldrich). Final DMSO in the assay was always 1%. […]
Protein titrations were made by titrating 14-3-3σ in a 2-fold dilution series (starting at 300 µM) to a mix of fluorescein-labeled peptide (10 nM) and DMSO or compound (100 µM). Fluorescence anisotropy measurements were performed after overnight incubation at room temperature. […]
(§1) Wells containing only FAM-peptide were used to set as G-factor at 35 mP. Data reported are at endpoint. EC50 and apparent Kd values were obtained from fitting the data with a four-parameter logistic model (4PL) in GraphPad Prism 7 for Windows. Data was obtained and averaged based on either three (compound titrations) or two (protein titrations) independent experiments.

14-3-3σ = molecular target: T2, 14-3-3σ (Homo sapiens, UniProt P31947); test: Mass spectrometry dose response, compound binding to 14-3-3σ in the absence of peptide (apo); details: 100 nM compound, 100 nM 14-3-3σ
T2 construct: The 14-3-3 σ isoform (full-length for mass spectrometry and fluorescence anisotropy assays, ΔC for crystallography); made in house; host or cells: E. coli Rosetta 2(DE3)pLysS, pPROEX HTb vector
T2 sequence (P31947 1-248): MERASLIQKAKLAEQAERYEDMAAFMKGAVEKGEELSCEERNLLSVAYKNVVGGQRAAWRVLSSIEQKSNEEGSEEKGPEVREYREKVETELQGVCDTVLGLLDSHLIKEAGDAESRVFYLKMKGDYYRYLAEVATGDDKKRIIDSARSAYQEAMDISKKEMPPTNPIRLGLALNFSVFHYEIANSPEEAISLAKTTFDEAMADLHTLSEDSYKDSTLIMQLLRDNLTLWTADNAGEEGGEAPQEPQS
Outline: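 Covalent binding of compounds to Cys38 of full-length wild type human 14-3-3σ (100 nM) was measured by LC-MS without peptide present. Compounds from 50 mM DMSO stocks were serially diluted 3-fold and 1000 nl transferred to plates in TRIS buffer (10 mM, pH 8.0), 50 μl per well. Samples were desalted on a BEH-C4 column and analysed on a Xevo G2-XS Q-Tof at several time points.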

14-3-3σ/ERα [2] = molecular target: T1, 14-3-3σ/ERα; test: Mass spectrometry dose response, compound binding to 14-3-3σ in the presence of ERα phosphopeptide; details: 100 nM compound, 100 nM 14-3-3σ, ERα-peptide 2 µM
Outline: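 Covalent labeling of Cys38 on 14-3-3σ was tracked by LC-MS on a Waters Acquity UPLC/Xevo G2-XS Q-Tof, with samples desalted on a Protein BEH-C4 column. Full-length wild type 14-3-3σ (100 nM) plus ERα phosphopeptide was mixed with compound in 10 mM TRIS, pH 8.0, at 50 μl per well. Percent bound was measured at several time points.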

14-3-3σ/C-RAF [3] = molecular target: T3, 14-3-3σ/C-RAF (Homo sapiens, UniProt P31947); test: Mass spectrometry dose response, compound binding to 14-3-3σ in the presence of C-RAF phosphopeptide; details: 100 nM compound, 100 nM 14-3-3σ, C-RAF peptide 18 µM
T3 construct: The 14-3-3 σ isoform (full-length for mass spectrometry and fluorescence anisotropy assays, ΔC for crystallography); made in house; host or cells: E. coli Rosetta 2(DE3)pLysS, pPROEX HTb vector
T3 sequence (P31947 1-248): T2 sequence (P31947 1-248)
Outline: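 Covalent binding of compounds to the native Cys38 of 14-3-3σ was monitored by LC-MS on a Waters Acquity UPLC/Xevo G2-XS Q-Tof, with samples desalted on a BEH-C4 column. Full-length wild type 14-3-3σ (100 nM) with C-RAF peptide in TRIS buffer (10 mM, pH 8.0) was incubated with compound dose series at room temperature.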

14-3-3σ/ERα [4] = molecular target: T1, 14-3-3σ/ERα; test: Fluorescence anisotropy compound titration, FAM-labeled ERα peptide; assay type: binding; details: 10 nM ERα-FAM labeled peptide, 1 µM 14-3-3σ, overnight incubation (24 h); read-out: EC50 value ERα (FA compound titration)
Outline: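 Fluorescence anisotropy compound titration measuring stabilization of the 14-3-3σ/ERα interaction: compounds were titrated in a 2-fold dilution series (starting at 500 or 1000 µM) into a mix of 10 nM fluorescein-labeled ERα peptide and 1 µM 14-3-3σ (about EC25 of the complex) in HEPES buffer with 1% DMSO, read after overnight incubation at room temperature; EC50 from 4PL fitting.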

14-3-3σ/C-RAF [5] = molecular target: T3, 14-3-3σ/C-RAF; test: Fluorescence anisotropy compound titration, FAM-labeled C-RAF peptide; assay type: binding; details: 10 nM C-RAF-FAM labeled peptide, 5 µM 14-3-3σ, overnight incubation; read-out: EC50 value C-RAF (FA compound titration)
Text: Two orthogonal assays were developed for screening. For the primary assay, mass spectrometry (MS) was used to monitor the formation of the covalent bond between the compound and the native cysteine (Cys38 on 14-3-3σ) (Figure 1D). The assay was first performed in the absence of peptide to determine binding to 14-3-3σ only (apo screening, D1) and then in the presence of both 14-3-3σ and the peptide as an indication of how much the peptide stabilized compound binding (D2). […] As a secondary assay, fluorescence anisotropy (FA) was used. In this case, compounds were titrated to mixtures of 14-3-3σ and FAM-labeled peptides. […] Thus, the two assays are highly complementary; the MS assay reports on compound binding and the FA assay reports on peptide binding. […]
diluted in buffer (10 mM HEPES, pH 7.5, 150 mM NaCl, 0.1% Tween20, 1 mg/mL Bovine Serum Albumin (BSA; Sigma-Aldrich). Final DMSO in the assay was always 1%. Dilution series of 14-3-3 proteins or compounds were made in […]
Compound titrations were made by titrating the compound in a 2-fold dilution series (starting at 500 or 1000 µM) to a mix of fluorescein-labeled peptide (10 nM) and 14-3-3σ (concentration at approximately the EC20 to EC30 value of the protein-peptide complex; 1 µM for ERα and 5 µM for C-RAF). Using the ~EC25 value makes the assay sensitive for measuring an increase in PPI formation. Fluorescence anisotropy measurements were performed directly and after overnight incubation at room temperature. […]
as §1

| X Fold stabilization (100 µM compound) of 14-3-3σ/ERα (14-3-3σ/ERα [1]) [fold] | Percentage (%) bound of compound to 14-3-3σ, APO 1h (14-3-3σ) [%] | Percentage (%) bound of compound to 14-3-3σ, APO 8h (14-3-3σ) [%] | Percentage (%) bound of compound to 14-3-3σ, APO 16h (14-3-3σ) [%] | Percentage (%) bound of compound to 14-3-3σ, APO 24h (14-3-3σ) [%] | Percentage (%) bound of compound to 14-3-3σ, ERα 1h (14-3-3σ/ERα [2]) [%] | Percentage (%) bound of compound to 14-3-3σ, ERα 8h (14-3-3σ/ERα [2]) [%] | Percentage (%) bound of compound to 14-3-3σ, ERα 16h (14-3-3σ/ERα [2]) [%] | Percentage (%) bound of compound to 14-3-3σ, ERα 24h (14-3-3σ/ERα [2]) [%] | Percentage (%) bound of compound to 14-3-3σ, CRAF 1h (14-3-3σ/C-RAF [3]) [%] | Percentage (%) bound of compound to 14-3-3σ, CRAF 8h (14-3-3σ/C-RAF [3]) [%] | Percentage (%) bound of compound to 14-3-3σ, CRAF 24h (14-3-3σ/C-RAF [3]; 24h) [%] | Percentage (%) bound of compound to 14-3-3σ, CRAF 24h (14-3-3σ/C-RAF [3]; head prints 24h) [%] | EC50 (14-3-3σ/ERα [4]) [µM] | EC50 (14-3-3σ/C-RAF [5]) [µM] | Kd (14-3-3σ/ERα [1]; 100 µM compound, overnight incubation) [µM] | Structure (SMILES) |
| --- | --- | --- | --- | --- | --- | --- | --- | --- | --- | --- | --- | --- | --- | --- | --- | --- |
| 166 |  |  |  |  |  |  |  |  |  |  |  |  |  |  |  | C=CC(C)(C)OCC1OC(OC2C3=C(C(C)COC(C)=O)CC(O)C3(C)C=C3C(COC)CCC3C(C)C2O)C(O)C(OC(C)=O)C1O (stereo not shown) [FC-A, Fusicoccin-A, reference compound] |
|  | 0 | 0 | 0.8 | 1.3 | 1.6 | 7.1 | 11.5 | 32.3 | 1.5 | 4.8 | 17.5 | 8.9 | 55 ± 14 | > 150 |  | O=C(CCl)NCC1CCN(C(=O)C2(Oc3ccc(Cl)cc3)CCCCC2)CC1 [compound 122] |
|  | 0 | 0 | 0 | 1.0 | 1.7 | 6.2 | 9.1 | 15.1 | 0.0 | 1.0 | 4.7 | 3.6 | 9 ± 2 | > 150 |  | O=C(CCl)NCC1CCN(C(=O)C2(Oc3ccc(Cl)cc3)CCOCC2)CC1 [compound 126] |
|  | 0.0 | 1.0 | 1.0 | 1.9 | 3.4 | 8.3 | 20.8 | 63.9 | 1.0 | 1.9 | 3.5 | 1.9 | 8 ± 1 | 59 ± 4 |  | O=C(CCl)NCC1CCN(C(=O)C2(Nc3ccc(Cl)cc3)CCCCC2)CC1 [compound 123] |
|  | 1.0 | 1.0 | 1.5 | 3.0 | 5.0 | 5.0 | 8.4 | 41.4 | 0.6 | 0.7 | 2.1 | 1.6 | 97 ± 9 | > 150 |  | O=C(CCl)NCC1CC2(CCN(C(=O)C3(Nc4ccc(Cl)cc4)CCOCC3)CC2)C1 [compound 174] |
|  | 0 | 0 | 0 | 0 | 0 | 0 | 0 | 4.5 | 0 | 0 | 0 | 0 | > 150 | > 150 |  | O=C(CCl)NCC1CCN(C(=O)C2(Nc3ccccc3)CCCC2)CC1 [compound 120] |
| 55 | 0.6 | 0.8 | 14.2 | 17.7 | 7.6 | 16.2 | 37.7 | 86.7 | 0 | 1.0 | 23.3 | 3.4 | 4 ± 0.4 |  | 0.027 | O=C(CCl)NCCCC1CCN(C(=O)C2(Nc3ccc(Cl)cc3)CCOCC2)CC1 [compound 149] |
|  | 0 | 1.0 | 1.0 | 2.5 | 1.9 | 5.3 | 10.9 | 21.0 | 6.2 | 19.7 | 53.6 | 28.5 | 24 ± 2 | 18 ± 0.3 |  | O=C(CCl)NCC1CCN(C(=O)C2(Oc3ccccc3)CCCC2)CC1 [compound 119] |
